Assay results reported in US20220152160A1, “DOSING REGIMEN” (Novo Nordisk A/S, priority 2013, published 2022).

Experiments:
[1] = in vivo; cited from earlier work
[2] = tested on: insulin-naïve participants with T2DM; details: human, in vivo
Description: (§1) This phase 3a, 26-week, randomized, controlled, open-label, multinational, treat-to-target, non-inferiority trial compared the efficacy and safety of IDeg U-200 (i.e. 200 U/mL) and IGlar (100 U/mL) both administered OD in combination with metformin (met) ±DPP-4 inhibitor in insulin-naïve participants with T2DM previously treated with oral antidiabetic drugs OAD(s), who qualified for intensification of treatment. The trial was open-label because the pen devices used to administer the basal insulins were distinctively different and blinding was, therefore, impossible.
(§2) Using the interactive voice/web response system, eligible participants were randomized 1:1 to either once-daily IDeg U-200 (IDeg 200 U/mL, 3 mL FlexTouch®, Novo Nordisk, Bagsvård, Denmark) or once-daily IGlar (Lantus® 100 U/mL, 3 mL SoloStar® Sanofi Aventis U.S. LLC) and continued metformin ±DPP-4 inhibitor treatment. Trial participants were instructed to continue the same total daily dose of metformin and DPP-4 inhibitor treatment as before the start of the trial.
(§3) Insulin degludec was administered once-daily with the main evening meal and, consistent with its product labelling, IGlar was administered once-daily (OD) at the same time each day. Either treatment was injected subcutaneously in the thigh, upper arm or abdomen. The starting dose for each was 10 U, and during the treatment period, the insulin dose was systematically titrated using a treat-to-target approach striving for a pre-breakfast self-measured plasma glucose (SMPG) level of 4.0-4.9 mmol/L (71-89 mg/dL). Both IDeg and IGlar were similarly titrated once weekly in 2 U increments. The treatment period was 26 weeks and doses were individually titrated in an effort to achieve the same glucose targets with both treatments.
The primary endpoint for this study was change in HbA1c (%) from baseline after 26 weeks of treatment. Secondary confirmatory endpoints tested were number of treatment-emergent confirmed hypoglycaemic episodes, change from baseline in central laboratory-measured fasting plasma glucose (FPG), within subject variability as measured by coefficient of variation (%), and frequency of participants achieving HbA1c<7% without hypoglycaemic episodes. […]
Treatment difference in change from baseline in HbA1c after 26 weeks was analyzed using an Analysis of Variance (ANOVA) model with treatment, antidiabetic treatment at screening, sex and region (Europe, North America, or South Africa) as fixed factors, and age and baseline HbA1c as covariates. […] The number of treatment-emergent confirmed hypoglycaemic episodes was analyzed using a negative binomial regression model including treatment, antidiabetic therapy at screening, sex and region as fixed factors, and age as covariate. […]

[3] = tested on: insulin-naïve participants with T2DM; assay: Clinical Trial 1 (26-week, treat-to-target): glycaemic control (HbA1c, FPG), IDeg U-200 vs IGlar; format: in vivo, human; details: whole population
Description: as §1
Participants who were insulin-naïve adults with T2DM for at least 6 months, HbA1, 7-10% (inclusive), BMI s 45 kg/m^2, and previously treated with metformin with or without additional OADs for at least 3 months were eligible to participate in the study.
as §2, §3
The primary endpoint for this study was change in HbA1c (%) from baseline after 26 weeks of treatment. Secondary confirmatory endpoints tested were number of treatment-emergent confirmed hypoglycaemic episodes, change from baseline in central laboratory-measured fasting plasma glucose (FPG), within subject variability as measured by coefficient of variation (%), and frequency of participants achieving HbA1c<7% without hypoglycaemic episodes. The supportive secondary endpoints included 9-point SMPG profiles, frequency of participants achieving HbA1c<7%, and Health-Related Quality of Life (HRQoL; Short Form 36 [SF-36 v.2] questionnaire) scores. The safety assessments were adverse events, hypoglycaemic episodes, insulin dose, body weight, physical examination, vital signs, fundoscopy, electrocardiogram (ECG) and laboratory tests (including antibodies). Confirmed hypoglycaemic episodes were defined as episodes with a PG value of <3.1 mmol/L (56 mg/dL) and severe episodes requiring assistance.^7 Hypoglycaemic episodes occurring between 00:01 h and 05:59 h (inclusive) were classified as nocturnal.
Analyses of all efficacy endpoints were based on the full analysis set (FAS) which included all randomized participants. The safety analysis set included all participants who received at least one dose of the investigational product or the comparator. Missing values were imputed using the last observation carried forward (LOCF) method.
The primary objective of this trial was to confirm the non-inferiority of IDeg U-200 OD to IGlar OD as assessed by change in HbA1c from baseline after 26 weeks of treatment. Non-inferiority was confirmed if the upper limit of the 95% confidence interval (Cl) for the treatment difference was 50.4%. […]

## NεB29-(Nα—(HOOC(CH2)14CO)-γ-Glu)des(B30)-human insulin [insulin degludec]
[1]
  duration of action: greater than 42 hours
[2]
  %: Percentage of subjects experiencing at least one episode: 6.1%
  ERR IDeg/IGlar, nocturnal confirmed hypoglycaemia: 0.64
  estimated rate ratio (ERR) IDeg/IGlar, confirmed hypoglycaemia: 0.86
  rate of nocturnal confirmed hypoglycaemic episodes: 0.18 episodes/patient-year
[3]; 26 weeks
  non-inferiority to IGlar in change in HbA1c from baseline: non-inferiority
[3]; 26 weeks, 95% CI −0.11, 0.19
  estimated treatment difference (ETD) IDeg-IGlar in change in HbA1c: 0.04
[3]; 26 weeks, 95% CI −0.78, −0.06
  ETD in FPG (IDeg vs IGlar): −0.42
[3]; after 26 weeks
  Central laboratory-measured FPG decrease: 4.0 mmol/L
  Central laboratory-measured FPG reached: 5.7 mmol/L
  FPG reduction compared with IGlar: statistically significantly greater FPG reduction
